Laboratory results from patent EP0107907A2, “Improvements in or relating to immunomodulating agents” (ELI LILLY AND COMPANY, priority 1982, dated 1984).
Marks after values point to notes of the source that are not given here.

Key:
peritoneal macrophages = assay: In vivo macrophage activation (peritoneal macrophages from treated mice, cytotoxicity against P815 cells); set-up: species or system BALB/c mice
Procedure: In another procedure, peritoneal macrophages were harvested after 3, 5, or 10 days from composition- treated mice by peritoneal lavage and purified by adherence on plastic. Approximately 4 x 10^5 macrophages in 16-mm wells were overlaid with 4 x 10^4 P815 cells contained in 2 ml of Roswell Park Memorial Institute.1640 Medium supplemented with 20 percent fetal calf serum. All cultures were maintained in a humidified, 5-percent COZ-in-air incubator at 37°C., and cytotoxicity was assessed at 48 hours on the basis of viable cell counts in a hemocytometer. Triplicate cultures were maintained for each group; the mean cell count and standard error (S.E.) were calculated. […] The ratio of macrophages to target cells was approximately 10:1 at the beginning of each experiment. The percentage of growth inhibition of P815 cells due to composition-mediated macrophage activation was calculated by comparison to that of P815 cells grown in the presence of macrophages from buffer- treated animals.

Electrometric titration = format: physicochemical; details: 66% aqueous dimethylformamide; the glycyl amino group
Candida albicans A26 = assay: Protection of mice by pretreatment against lethal Candida albicans infection; format: in vivo, CD1 mice
Procedure: (§1) In this test CD1 mice weighing 18-20 g were pretreated intraperitoneally or subcutaneously with test compound at 5, 3, and 1 days before intravenous infection with 5 x 10^6 viable cells of Candida albicans A26. Test compound was solubilized in pyrogen-free water and administered in 0.25 ml of solution. Ten mice were used for each concentration tested. Ten infected mice were treated intraperitoneally or subcutaneously at 5, 3, and 1 days preinfection with 0.25 ml of pyrogen-free water as controls. The immunomodulatory effects of the test compound were studied in X-irradiated mice exposed to 400R 24 hours preinfection, or mice treated intraperitoneally with 50 mg/kg cyclophosphamide 5, 3, and 1 days preinfection. The mice were caged, watered, and fed daily. The number of surviving mice was counted daily. Normal mice surviving 18 days post-infection were given an arbitrary 19-day survival time. X-irradiated or cyclophosphamide-treated mice surviving 12 days post-infection were given an arbitrary 13 day survival time. The average survival time was calculated for each group. Significant differences between treated and untreated groups of mice were determined by "T" test. Compound 1 was devoid of intrinsic in vitro antifungal activity against C. albicans A26 in a standard agar-diffusion test.

Solubility = format: physicochemical
Description: A53868 factor A is soluble in water and dimethyl sulfoxide and is insoluble in most organic solvents.
Soluhility: soluble in water and dimethyl sulfoxide; insoluble in most organic solvents

C. albicans A26 = assay: Standard agar-diffusion test, antifungal; format: cell-based
Procedure: as §1

L. monocytogenes EDG = assay: Standard agar-diffusion test, antibacterial; format: cell-based
Description: Compound 1 was negative in the Limulus Lysate Test for endotoxin and was devoid of intrinsic in vitro antibacterial activity against L. monocytogenes EDG in a standard agar-diffusion test.

[1] = Cyclophosphamide-Pretreated Mice, dose 25 mg/kg
[2] = Cyclophosphamide-Pretreated Mice, dose 50 mg/kg

Compound: C=C(CP(=O)(O)O)NC(=O)[C@H](CC(C)C)NC(=O)CN [Compound 1, N^2-glycyl-N-(1-methylene-2-phosphonoethyl)leucinamide]
- Percent Macrophage Cytotoxicity at Day (peritoneal macrophages; dose 10 mg/kg, Day 0): 0%
- Percent Macrophage Cytotoxicity at Day (peritoneal macrophages; dose 10 mg/kg, Day 3): 8%
- Percent Macrophage Cytotoxicity at Day (peritoneal macrophages; dose 10 mg/kg, Day 5): 20%
- Percent Macrophage Cytotoxicity at Day (peritoneal macrophages; dose 10 mg/kg, Day 10): 0%
- Percent Macrophage Cytotoxicity at Day (peritoneal macrophages; dose 100 mg/kg, Day 0): 0%
- Percent Macrophage Cytotoxicity at Day (peritoneal macrophages; dose 100 mg/kg, Day 3): 43%
- Percent Macrophage Cytotoxicity at Day (peritoneal macrophages; dose 100 mg/kg, Day 5): 25%
- Percent Macrophage Cytotoxicity at Day (peritoneal macrophages; dose 100 mg/kg, Day 10): 0%
- pKa (Electrometric titration): 8.2
- Average Survival Time (Candida albicans A26; [1]): 6.8 days
- Percent Increase In Average Survival Time Above Untreated Controls (Candida albicans A26; [1]): 54.5* Percent
- Average Survival Time (Candida albicans A26; [2]): 6.1 days
- Percent Increase In Average Survival Time Above Untreated Controls (Candida albicans A26; [2]): 38.6* Percent
- Average Survival Time (Candida albicans A26; Normal Mice, dose 12.5 mg/kg): 9.1 days
- Percent Increase In Average Survival Time Above Untreated Controls (Candida albicans A26; Normal Mice, dose 12.5 mg/kg): 68.0* Percent
- Average Survival Time (Candida albicans A26; Normal Mice, dose 50 mg/kg): 7.1 days
- Percent Increase In Average Survival Time Above Untreated Controls (Candida albicans A26; Normal Mice, dose 50 mg/kg): 31.5* Percent
- protecting mice from a lethal Candida albicans A26 infection (Candida albicans A26; preinfection treatments at 5, 3, and 1 days, intraperitoneally or subcutaneously): significantly effective
- solubility in most organic solvents (Solubility; most organic solvents): insoluble
- solubility in water and dimethyl sulfoxide (Solubility; water and dimethyl sulfoxide): soluble
- intrinsic in vitro antifungal activity (C. albicans A26): devoid
- intrinsic in vitro antibacterial activity (L. monocytogenes EDG): devoid
